Target: Receptor-type tyrosine-protein kinase FLT3 (Homo sapiens) (UniProt P36888)
Assay: FLT3 kinase inhibitors, dose response, biochemical, Z'-LYTE, FRET, protease-coupled, direct format (AID 1671268)
Conditions: recombinant FLT3, Z'-LYTE FRET peptide phosphorylation

Chain of Receptor-type tyrosine-protein kinase FLT3 (Homo sapiens) (P36888 whole entry, looked up): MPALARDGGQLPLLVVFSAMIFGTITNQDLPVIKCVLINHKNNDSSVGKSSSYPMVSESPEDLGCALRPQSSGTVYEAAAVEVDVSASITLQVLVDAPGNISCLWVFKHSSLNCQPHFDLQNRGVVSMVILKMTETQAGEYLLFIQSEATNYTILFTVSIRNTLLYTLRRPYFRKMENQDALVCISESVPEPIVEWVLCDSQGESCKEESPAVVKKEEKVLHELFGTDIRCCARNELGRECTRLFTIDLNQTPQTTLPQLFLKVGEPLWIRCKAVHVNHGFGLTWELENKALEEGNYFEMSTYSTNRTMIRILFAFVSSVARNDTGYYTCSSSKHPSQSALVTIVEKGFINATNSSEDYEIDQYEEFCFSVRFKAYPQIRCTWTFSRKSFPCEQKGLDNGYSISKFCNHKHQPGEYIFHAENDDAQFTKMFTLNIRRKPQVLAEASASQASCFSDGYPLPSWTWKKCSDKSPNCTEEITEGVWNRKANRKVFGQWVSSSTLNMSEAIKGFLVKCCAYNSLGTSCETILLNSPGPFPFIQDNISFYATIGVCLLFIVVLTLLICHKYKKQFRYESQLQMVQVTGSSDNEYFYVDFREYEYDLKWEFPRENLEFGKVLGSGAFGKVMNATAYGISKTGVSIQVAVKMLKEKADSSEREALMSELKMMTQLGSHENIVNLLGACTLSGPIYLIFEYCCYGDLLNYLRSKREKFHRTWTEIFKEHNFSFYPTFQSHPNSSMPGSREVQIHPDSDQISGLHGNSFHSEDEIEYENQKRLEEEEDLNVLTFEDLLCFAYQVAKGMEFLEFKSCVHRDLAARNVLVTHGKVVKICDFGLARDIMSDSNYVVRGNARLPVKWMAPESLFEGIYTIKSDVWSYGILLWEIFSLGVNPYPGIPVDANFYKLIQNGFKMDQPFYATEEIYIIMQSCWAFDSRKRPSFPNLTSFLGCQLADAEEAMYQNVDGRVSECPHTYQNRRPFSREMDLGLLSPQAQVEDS

IC50: 2940 nM
Compound: COc1cc2ncnc(Nc3cccc(Cl)c3)c2cc1OC
